Test results published in the Kinase Knowledgebase extract (Sharma et al. 2016).

Molecular target: MAPK14 (human) (UniProt Q16539)
Assay: Inhibition of MAPK14 Kinase Activity

Chain of MAPK14 (human) (Q16539 whole entry, looked up): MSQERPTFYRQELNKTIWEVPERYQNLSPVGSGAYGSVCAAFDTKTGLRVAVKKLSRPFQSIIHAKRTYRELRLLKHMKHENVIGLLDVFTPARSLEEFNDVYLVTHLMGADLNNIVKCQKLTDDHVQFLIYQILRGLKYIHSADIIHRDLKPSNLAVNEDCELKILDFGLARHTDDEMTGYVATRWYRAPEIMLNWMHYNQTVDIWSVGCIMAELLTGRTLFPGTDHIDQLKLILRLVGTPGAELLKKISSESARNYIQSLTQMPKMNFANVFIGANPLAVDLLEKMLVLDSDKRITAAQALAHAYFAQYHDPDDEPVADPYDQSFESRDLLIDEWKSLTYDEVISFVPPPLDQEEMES

IC50 | Structure (SMILES)
≤ 5 µM | CC(C)C(C)n1c(N)nc2ccc(-c3[nH]c(-c4c(F)cccc4F)nc3-c3ccccc3)cc21 (stereo not drawn)
≤ 5 µM | CC(C)Cn1c(N)nc2ccc(-c3c(-c4ccccc4)nc(C4CCCCC4)n3C)cc21
≤ 5 µM | CCOCn1nc(-c2ccccc2)c(-c2ccc3nc(N)n(CC(C)C)c3c2)n1
≤ 5 µM | CC(C)Cn1c(N)nc2ccc(-c3n[nH]nc3-c3ccc(F)cc3F)cc21
≤ 5 µM | CC(n1c(N)nc2ccc(-c3[nH]c(-c4c(F)cccc4F)nc3-c3ccccc3)cc21)C(C)(C)C (stereo not drawn)
≤ 5 µM | CC(C)Cn1c(N)nc2ccc(-c3cn(C(C)C)nc3-c3ccc(F)cc3)cc21
≤ 5 µM | CCCn1cnc2ccc(-c3[nH]c(-c4c(F)cccc4F)nc3-c3ccccc3)cc21
≤ 5 µM | Nc1nc2ccc(-c3[nH]c(-c4c(F)cccc4F)nc3-c3ccccc3)cc2n1CC1CC1
≤ 5 µM | CC(C)Cn1c(N)nc2ccc(-c3cn(C(C)C)nc3-c3ccccc3)cc21
≤ 5 µM | CC(C)Cn1c(N)nc2ccc(-c3cn(C(C)(C)C)nc3-c3ccccc3)cc21
≤ 5 µM | CC(C)(C)Cn1c(N)nc2ccc(-c3[nH]c(-c4c(F)cccc4C(F)(F)F)nc3-c3ccccc3)cc21
≤ 5 µM | Nc1nc2ccc(-c3nc(-c4c(F)cccc4Cl)[nH]c3-c3ccccc3)cc2n1CC1CC1
≤ 5 µM | Cc1nc(-c2ccc(F)cc2F)c(-c2ccc3nc(N)n(C(C)C(C)C)c3c2)[nH]1 (stereo not drawn)
≤ 5 µM | Nc1nc2ccc(-c3[nH]c(-c4c(F)cccc4F)nc3-c3ccccc3)cc2n1CC1CCCCC1
≤ 5 µM | Cc1nc2ccc(-c3nc(-c4c(F)cccc4F)[nH]c3-c3ccccc3)cc2n1CC(C)C

Second part, the compound before the results:

Structure (SMILES) | IC50
CC(C)Cn1c(N)nc2ccc(-c3c[nH]nc3-c3ccc(F)cc3F)cc21 | ≤ 5 µM
CC(C)Cn1cnc2ccc(-c3n[nH]nc3-c3ccccc3)cc21 | ≤ 5 µM
Fc1cccc(F)c1-c1nc(-c2ccccc2)c(-c2ccc3nc[nH]c3c2)[nH]1 | ≤ 5 µM
CC(C)Cn1c(N)nc2ccc(-c3cn[nH]c3-c3ccc(F)cc3)cc21 | ≤ 5 µM
CC(C)Cn1c(N)nc2ccc(-c3c[nH]nc3-c3ccccc3)cc21 | ≤ 5 µM
CC(C)(C)Cn1c(N)nc2ccc(-c3[nH]c(-c4c(F)cccc4F)nc3-c3ccccc3)cc21 | ≤ 5 µM
CC(C)Cn1c(N)nc2ccc(-c3oc(C(C)(C)C)nc3-c3ccc(F)cc3F)cc21 | ≤ 5 µM
CC(C)Cn1c(N)nc2ccc(-c3[nH]c(-c4c(F)cccc4Cl)nc3-c3ccccc3)cc21 | ≤ 5 µM
CC(C)Cn1c(N)nc2ccc(-c3[nH]c(-c4c(F)cccc4C(F)(F)F)nc3-c3ccc(F)cc3F)cc21 | ≤ 5 µM
CC(C)Cn1c(N)nc2ccc(-c3cn(C(C)(C)C)nc3-c3ccc(F)cc3)cc21 | ≤ 5 µM
CC(C)Cn1c(N)nc2ccc(-c3[nH]c(C(C)(C)C)nc3-c3ccc(F)cc3F)cc21 | ≤ 5 µM
CC(C)Cn1c(N)nc2ccc(-c3oc(C(C)(C)C)nc3-c3ccc(F)cc3)cc21 | ≤ 5 µM
CC(C)Cn1c(N)nc2ccc(-c3[nH]c(-c4ccc(Cl)cc4)nc3-c3ccccc3)cc21 | ≤ 5 µM
CC(C)(C)Cn1c(N)nc2ccc(-c3nc(-c4c(Cl)cccc4Cl)[nH]c3-c3ccccc3)cc21 | ≤ 5 µM
Nc1nc2ccc(-c3[nH]c(-c4c(F)cccc4F)nc3-c3ccccc3)cc2n1-c1ccccc1 | ≤ 5 µM
Nc1nc2ccc(-c3[nH]c(-c4c(F)cccc4F)nc3-c3ccccc3)cc2n1Cc1ccccc1 | ≤ 5 µM
CC(C)Cn1cnc2ccc(-c3c(-c4ccccc4)ncn3C3CCCCC3)cc21 | ≤ 5 µM

Structure (SMILES) | IC50
CC(C)n1c(N)nc2ccc(-c3n[nH]nc3-c3ccccc3)cc21 | ≤ 5 µM
Nc1nc2ccc(-c3nc(-c4c(F)cccc4Cl)[nH]c3-c3ccc(F)cc3F)cc2n1CC1CC1 | ≤ 5 µM
CCCCn1cnc2ccc(-c3[nH]c(-c4c(F)cccc4F)nc3-c3ccccc3)cc21 | ≤ 5 µM
CC(C)(C)Cn1c(N)nc2ccc(-c3[nH]c(C(C)(C)C)nc3-c3ccccc3)cc21 | ≤ 5 µM
CC(C)n1cnc2ccc(-c3[nH]c(-c4c(F)cccc4F)nc3-c3ccccc3)cc21 | ≤ 5 µM
CC(C)n1cnc2ccc(-c3n[nH]nc3-c3ccccc3)cc21 | ≤ 5 µM
CC(C)(C)Cn1c(N)nc2ccc(-c3[nH]c(C4CC4)nc3-c3ccc(F)cc3F)cc21 | ≤ 5 µM
Nc1nc2ccc(-c3nc(-c4c(Cl)cccc4Cl)[nH]c3-c3ccc(F)cc3F)cc2n1CC1CC1 | ≤ 5 µM
CCOCN1=NC(=C(N1)c2ccc3nc(N)n(CC(C)C)c3c2)c4ccccc4 | ≤ 5 µM
Fc1cccc(F)c1-c1nc(-c2ccccc2)c(-c2ccc3ncn(CC4CC4)c3c2)[nH]1 | ≤ 5 µM
CC(C)Cn1c(N)nc2ccc(-c3[nH]c(-c4c(Cl)cccc4Cl)nc3-c3ccc(F)cc3F)cc21 | ≤ 5 µM
CC(C)(C)Cn1cnc2ccc(-c3[nH]c(-c4c(F)cccc4F)nc3-c3ccccc3)cc21 | ≤ 5 µM
CC(C)Cn1cnc2ccc(-c3[nH]c(-c4c(F)cccc4F)nc3-c3ccccc3)cc21 | ≤ 5 µM
CC(C)Cn1c(N)nc2ccc(-c3[nH]c(C(C)(C)C)nc3-c3ccc(F)cc3)cc21 | ≤ 5 µM
Nc1nc2ccc(-c3nc(-c4c(F)cccc4C(F)(F)F)[nH]c3-c3ccccc3)cc2n1CC1CC1 | ≤ 5 µM
CC(C)Cn1c(N)nc2ccc(-c3[nH]c(C(C)C)nc3-c3ccccc3)cc21 | ≤ 5 µM
